Read-outs that look alike come from different tables or passages of the source.
Tests used:
[1] = molecular target: T1, DNA-dependent protein kinase (DNA-PK) (Homo sapiens, UniProt P78527); experiment: kinobeads assay, DNA-PK; format: binding
T1 construct: endogenous in cells; host or cells: Jurkat, clone E6-1 (ATCC TIB-152) cell lysate
Outline: (§1)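 IC50 values came from dose-response curves after test compound (1:3 series) competed with an immobilized phenylmorpholin-chromen affinity matrix for kinases in Jurkat lysate at 5 mg/mL protein. Eluted captured DNA-PK and PI3Kδ were measured by specific-antibody dot blot and infrared imaging. Buffer was Tris pH 7.4, NP40, MgCl2, NaCl, vanadate, DTT, NaF.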

[2] = system: S6RP serine-240/244 phosphorylation; experiment: In vitro Phospho-S6 cellular assay (pS6RP S240/244) in HEK293T/17 cells; format: cell-based; conditions: Homo sapiens, 2 hours, read-out: pS6 IC50
Excerpt: Activation of mTOR signaling results in phosphorylation of several downstream targets. In cells, mTOR exists in two different protein complexes. The mTOR Complex-1 (mTORC1) phosphorylates and activates S6 Kinase 1 (S6K1) and S6 Kinase 2 (S6K2) (also known as p70S6K) which then phosphorylate S6 Ribosomal Protein (S6RP) (also known as RPS6)3. S6RP is phosphorylated on serine 235, serine 236, serine 240 and serine 244 by both pS6K1 and pS6K2. The mTOR Complex-2 (mTORC2) phosphorylates AKT on serine 473 which activates the AKT signaling pathway.
The assay measures a test compound's inhibition of S6RP serine-240/244 phosphorylation and inhibition of Akt serine-473 phosphorylation in human embryonic kidney derived HEK293T/17 cells (ATCC CRL-11268).
The HEK293T/17 cell line is maintained in DMEM media (Invitrogen catalogue number 41965-039) supplemented with 10% FCS at 37° C. in a 5% CO2 humidified incubator.
Cells are seeded in 96-well plates at 40,000 cells/well (pS6RP S240/244 assay) or 80,000 cells/well (pAkt S473 assay) in 90 μl growth media (DMEM, 2% FCS). Plates are incubated for 1 hour in a humidified incubator to allow the cells to adhere. Cells are treated with 8 concentrations of test compounds or DMSO alone for controls (final DMSO concentration 0.1%) and incubated at 37° C. for 2 hours. Then 20 μl of 5× concentrated lysis buffer (750 mM NaCl, 100 mM Tris pH7.4, 5 mM ADTA, 5 mM EGTA, 5% Triton X-100) is added, plates are sealed and incubated for 15 minutes at 4° C. with gentle shaking. After cell lysis, 25 μl cell lysate is transferred to a MesoScale plate coated with an antibody to pS6RP Ser240/244 (MesoScale Discovery K150DGD-3) or an antibody to pAkt Ser 473 (MesoScale Discovery K151DGD-3). Plates have been blocked before by incubation with 150 μl MesoScale Discovery Blocking Solution-A for 1 hour at room temperature followed by washing with 150 μl 1× Tris wash buffer per well. After the transfer of the cell lysate to the MSD plate, the pS6RP (or pAkt) protein is captured on the coated antibody by incubation at room temperature for 1 hour with gentle shaking. After the capture step the plate is washed three times with 150 μl of 1× Tris wash buffer per well. Then 25 μl detection antibody conjugated with a Sulfo-Tag is added and incubated for 1 hour at room temperature with gentle shaking. Subsequently the antibody solution is removed and the plate is washed 3 times with 150 μl×Tris wash buffer per well and 150 μl Read buffer is added. The plates are analysed on a MSD 2400 Plate Reader (MesoScale Discovery). Data analysis is performed using nonlinear regression for a sigmoidal dose-response with a variable slope.

PI3K delta (PI3 Kd) = molecular target: T2, PI3K delta (PI3 Kd) (Homo sapiens, UniProt O00329); experiment: kinobeads assay, PI3K delta; format: binding
T2 construct: endogenous in cells; host or cells: Jurkat, clone E6-1 (ATCC TIB-152) cell lysate
Outline: as §1

PI3 Kgamma (PI3 Kg) = molecular target: T3, PI3 Kgamma (PI3 Kg) (Homo sapiens, UniProt P48736); experiment: kinobeads assay, PI3Kgamma; format: binding
T3 construct: endogenous in cells; host or cells: cell lysate
Outline: (§2)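 Competitive binding in cell lysate: test compounds at various concentrations compete with beads carrying an immobilized phenylmorpholin-chromen ligand. Bead-captured kinases are eluted and quantified by multiplexed immunodetection. IC50 values come from dose-response curves for each kinase.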

PI3Kalpha (PI3Ka) = molecular target: T4, PI3Kalpha (PI3Ka) (Homo sapiens, UniProt P42336); experiment: kinobeads assay, PI3Kalpha; format: binding; conditions: for IC50 / Inhibition values (IC50) PI3Ka: kinobeads assay, Table 6; for IC50: read-out: Inhibition values (IC50) PI3Ka; for PI3Ka: Further Kinobeads Data
T4 construct: endogenous in cells; host or cells: cell lysate
Outline: as §2

PI3 Kbeta (PI3 Kb) = molecular target: T5, PI3 Kbeta (PI3 Kb) (Homo sapiens, UniProt P42338); experiment: kinobeads assay, PI3Kbeta; format: binding
T5 construct: endogenous in cells; host or cells: cell lysate
Outline: as §2

mTOR = molecular target: T6, mTOR (Homo sapiens, UniProt P42345); experiment: mTOR kinobeads assay (competitive binding in Jurkat cell lysate, immunodetection)
T6 construct: endogenous in cells; host or cells: Jurkat, clone E6-1 (ATCC TIB-152) cell lysate
Outline: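 IC50 derived from dose-response curves of mTOR captured on immobilized phenylmorpholin-chromen beads, detected by antibody dot blot with infrared fluorescence.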

[3] = kinobeads assay, Table 4, read-out: Inhibition values (IC50) DNA-PK
[4] = kinobeads assay, Table 6, read-out: Inhibition values (IC50) DNAPK
[5] = kinobeads assay, Table 4, read-out: Inhibition values (IC50) PI3Kd
[6] = kinobeads assay, Table 6, read-out: Inhibition values (IC50) PI3Kd
[7] = kinobeads assay, Table 6, read-out: Inhibition values (IC50) PI3Kg
[8] = kinobeads assay, Table 6, read-out: Inhibition values (IC50) PI3Kb
[9] = Further Kinobeads Data, read-out: PI3Kg
[10] = Further Kinobeads Data, read-out: DNAPK
[11] = Further Kinobeads Data, read-out: mTor
[12] = Further Kinobeads Data, read-out: PI3Kb
[13] = Further Kinobeads Data, read-out: PI3Kd

T1 sequence (P78527 whole entry): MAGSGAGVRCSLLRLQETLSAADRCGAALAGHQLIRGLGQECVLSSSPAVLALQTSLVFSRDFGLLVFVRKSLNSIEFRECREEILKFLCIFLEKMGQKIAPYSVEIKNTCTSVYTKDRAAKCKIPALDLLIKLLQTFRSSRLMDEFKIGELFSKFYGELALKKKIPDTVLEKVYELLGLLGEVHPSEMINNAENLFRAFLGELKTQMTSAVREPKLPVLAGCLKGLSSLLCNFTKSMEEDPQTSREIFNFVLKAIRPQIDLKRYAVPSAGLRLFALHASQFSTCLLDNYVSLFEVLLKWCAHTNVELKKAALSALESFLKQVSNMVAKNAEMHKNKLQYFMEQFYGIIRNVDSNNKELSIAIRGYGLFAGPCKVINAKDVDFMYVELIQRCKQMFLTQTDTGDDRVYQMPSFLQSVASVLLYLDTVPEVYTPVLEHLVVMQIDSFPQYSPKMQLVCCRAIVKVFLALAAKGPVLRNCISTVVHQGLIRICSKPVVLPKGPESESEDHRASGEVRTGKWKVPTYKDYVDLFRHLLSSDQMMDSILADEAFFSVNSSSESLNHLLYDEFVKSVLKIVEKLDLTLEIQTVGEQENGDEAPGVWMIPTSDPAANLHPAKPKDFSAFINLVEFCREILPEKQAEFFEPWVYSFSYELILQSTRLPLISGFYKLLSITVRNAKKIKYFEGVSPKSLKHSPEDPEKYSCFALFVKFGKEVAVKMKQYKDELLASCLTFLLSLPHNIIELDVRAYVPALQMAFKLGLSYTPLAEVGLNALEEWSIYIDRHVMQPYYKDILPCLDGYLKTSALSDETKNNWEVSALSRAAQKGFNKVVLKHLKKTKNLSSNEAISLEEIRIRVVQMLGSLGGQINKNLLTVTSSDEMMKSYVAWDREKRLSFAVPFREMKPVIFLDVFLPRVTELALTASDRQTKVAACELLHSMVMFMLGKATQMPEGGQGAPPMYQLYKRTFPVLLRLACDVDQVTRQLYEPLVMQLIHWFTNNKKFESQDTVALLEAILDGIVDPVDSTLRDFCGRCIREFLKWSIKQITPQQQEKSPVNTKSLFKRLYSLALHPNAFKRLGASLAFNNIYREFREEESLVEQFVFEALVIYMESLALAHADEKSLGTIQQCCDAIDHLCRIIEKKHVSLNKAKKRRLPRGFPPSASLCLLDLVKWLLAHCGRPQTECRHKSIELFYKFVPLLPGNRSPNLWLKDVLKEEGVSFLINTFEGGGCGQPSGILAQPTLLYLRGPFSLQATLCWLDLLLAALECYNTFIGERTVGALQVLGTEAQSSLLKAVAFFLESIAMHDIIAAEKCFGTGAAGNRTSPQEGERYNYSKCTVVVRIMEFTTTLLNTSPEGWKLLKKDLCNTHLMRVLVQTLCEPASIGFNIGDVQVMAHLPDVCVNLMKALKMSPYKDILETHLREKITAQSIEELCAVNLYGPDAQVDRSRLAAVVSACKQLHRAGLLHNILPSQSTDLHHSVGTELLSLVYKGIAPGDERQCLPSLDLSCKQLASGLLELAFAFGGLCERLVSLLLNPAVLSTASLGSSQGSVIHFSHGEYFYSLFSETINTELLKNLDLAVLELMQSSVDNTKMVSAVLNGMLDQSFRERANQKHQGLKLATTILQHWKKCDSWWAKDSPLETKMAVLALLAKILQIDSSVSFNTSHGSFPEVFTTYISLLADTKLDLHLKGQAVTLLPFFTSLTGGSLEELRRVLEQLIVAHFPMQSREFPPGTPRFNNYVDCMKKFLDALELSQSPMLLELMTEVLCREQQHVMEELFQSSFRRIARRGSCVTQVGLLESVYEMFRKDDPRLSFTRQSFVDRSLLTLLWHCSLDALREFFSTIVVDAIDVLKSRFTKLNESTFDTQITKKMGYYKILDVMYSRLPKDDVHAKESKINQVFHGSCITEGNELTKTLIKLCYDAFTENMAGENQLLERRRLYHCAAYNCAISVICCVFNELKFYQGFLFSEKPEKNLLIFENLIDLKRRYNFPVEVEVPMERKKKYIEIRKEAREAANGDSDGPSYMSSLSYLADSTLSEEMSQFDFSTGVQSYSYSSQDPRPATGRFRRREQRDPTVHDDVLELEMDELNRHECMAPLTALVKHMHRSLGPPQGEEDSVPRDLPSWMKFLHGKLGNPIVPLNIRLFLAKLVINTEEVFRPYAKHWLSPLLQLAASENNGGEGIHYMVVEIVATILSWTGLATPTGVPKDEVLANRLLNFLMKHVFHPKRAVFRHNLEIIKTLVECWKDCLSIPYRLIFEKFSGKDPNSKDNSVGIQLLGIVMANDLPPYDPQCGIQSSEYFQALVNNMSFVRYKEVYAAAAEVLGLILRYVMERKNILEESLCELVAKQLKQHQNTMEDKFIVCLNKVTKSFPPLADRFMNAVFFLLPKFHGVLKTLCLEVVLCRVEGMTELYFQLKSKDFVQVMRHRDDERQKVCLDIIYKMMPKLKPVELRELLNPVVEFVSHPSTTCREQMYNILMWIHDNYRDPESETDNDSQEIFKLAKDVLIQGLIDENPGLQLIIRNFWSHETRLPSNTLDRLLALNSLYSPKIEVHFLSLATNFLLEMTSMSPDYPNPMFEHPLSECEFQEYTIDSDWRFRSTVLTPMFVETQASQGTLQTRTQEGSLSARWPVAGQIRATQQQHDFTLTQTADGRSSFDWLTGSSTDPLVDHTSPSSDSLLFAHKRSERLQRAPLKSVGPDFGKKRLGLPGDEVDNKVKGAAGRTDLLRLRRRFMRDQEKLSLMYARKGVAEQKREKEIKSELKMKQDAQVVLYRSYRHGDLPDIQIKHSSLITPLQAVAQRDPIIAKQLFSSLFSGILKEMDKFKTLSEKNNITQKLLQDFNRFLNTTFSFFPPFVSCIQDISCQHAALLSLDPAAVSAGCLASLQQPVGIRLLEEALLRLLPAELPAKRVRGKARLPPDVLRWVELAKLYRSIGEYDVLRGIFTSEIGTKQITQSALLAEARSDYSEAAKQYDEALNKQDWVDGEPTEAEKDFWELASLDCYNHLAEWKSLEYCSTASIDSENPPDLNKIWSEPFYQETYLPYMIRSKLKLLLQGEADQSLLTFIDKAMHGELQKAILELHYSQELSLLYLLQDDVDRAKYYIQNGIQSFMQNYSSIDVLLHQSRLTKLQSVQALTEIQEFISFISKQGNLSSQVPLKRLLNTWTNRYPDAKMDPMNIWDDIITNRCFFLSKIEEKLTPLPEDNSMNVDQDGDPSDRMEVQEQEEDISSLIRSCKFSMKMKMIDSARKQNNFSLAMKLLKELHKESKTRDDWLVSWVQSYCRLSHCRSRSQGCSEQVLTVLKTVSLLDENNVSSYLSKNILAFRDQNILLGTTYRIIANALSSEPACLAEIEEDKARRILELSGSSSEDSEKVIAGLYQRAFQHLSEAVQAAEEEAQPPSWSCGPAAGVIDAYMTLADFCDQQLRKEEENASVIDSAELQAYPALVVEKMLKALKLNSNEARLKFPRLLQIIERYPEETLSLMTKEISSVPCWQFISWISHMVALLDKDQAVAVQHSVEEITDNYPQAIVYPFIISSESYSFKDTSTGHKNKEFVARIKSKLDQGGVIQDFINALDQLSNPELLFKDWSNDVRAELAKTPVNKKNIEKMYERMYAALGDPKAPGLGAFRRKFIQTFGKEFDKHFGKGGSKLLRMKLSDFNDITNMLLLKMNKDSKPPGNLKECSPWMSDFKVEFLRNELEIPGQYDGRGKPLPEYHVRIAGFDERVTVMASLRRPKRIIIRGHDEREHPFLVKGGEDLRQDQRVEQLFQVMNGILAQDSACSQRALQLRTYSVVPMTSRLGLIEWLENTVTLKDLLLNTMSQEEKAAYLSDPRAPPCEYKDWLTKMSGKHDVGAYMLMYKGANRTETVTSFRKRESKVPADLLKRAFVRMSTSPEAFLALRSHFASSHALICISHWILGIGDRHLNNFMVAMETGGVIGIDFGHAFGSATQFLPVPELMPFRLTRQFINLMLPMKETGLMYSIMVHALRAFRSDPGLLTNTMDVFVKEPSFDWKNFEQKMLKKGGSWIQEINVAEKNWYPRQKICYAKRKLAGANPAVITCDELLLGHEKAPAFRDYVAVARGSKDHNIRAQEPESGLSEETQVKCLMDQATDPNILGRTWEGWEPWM

SMILES | IC50 [1, 3] [µM] | IC50 [1, 4] [µM] | IC50 [2] [nM] | IC50 (PI3K delta (PI3 Kd); [5]) [µM] | IC50 (PI3K delta (PI3 Kd); [6]) [µM] | IC50 (PI3 Kgamma (PI3 Kg); [7]) [µM] | IC50 (PI3Kalpha (PI3Ka)) [µM] | IC50 (PI3 Kbeta (PI3 Kb); [8]) [µM] | Inhibition values (IC50) PI3Ka (PI3Kalpha (PI3Ka)) | IC50 (PI3 Kgamma (PI3 Kg); [9]) [µM] | IC50 [1, 10] [µM] | PI3Ka (PI3Kalpha (PI3Ka)) | IC50 (mTOR; [11]) [nM] | IC50 (PI3 Kbeta (PI3 Kb); [12]) [µM] | IC50 (PI3K delta (PI3 Kd); [13]) [µM] | IC50 (mTOR; kinobeads assay, Table 6, read-out: Inhibition values (IC50) mTOR) [nM]
CCNC(=O)Nc1ccc(-c2nc3c(c(N4CCOCC4)n2)CN(C(=O)OC(C)(C)C)C3)cc1 [Example 63, tert-butyl 2-(4-(3-ethylureido)phenyl)-4-morpholino-5H-pyrrolo[3,4-d]pyrimidine-6(7H)-carboxylate] | > 10 | > 10 | 46 | 1 to 10 | 1 to 10 |  |  |  |  |  |  |  |  |  |  | 
CCNC(=O)Nc1ccc(-c2nc3c(c(N4CCOCC4)n2)CN(C(=O)NCC)C3)cc1 [Example 79, N-ethyl-2-(4-(3-ethylureido)phenyl)-4-morpholino-5H-pyrrolo[3,4-d]pyrimidine-6(7H)-carboxamide] |  | 1 to 10 | 589 |  | 1 to 10 | > 10 | 1 to 10 | > 10 |  |  |  |  |  |  |  | 
CCNC(=O)Nc1ccc(-c2nc3c(c(N4CCOC[C@@H]4C)n2)CCN(C(C)C)C3)cc1.O=CO [Example 75, (S)-1-ethyl-3-(4-(7-isopropyl-4-(3-methylmorpholino)-5,6,7,8-tetrahydropyrido[3,4-d]pyrimidin-2-yl)phenyl)urea formate] |  | > 10 | 82 |  | > 10 | > 10 |  | > 10 | D (D >10 μM) |  |  |  |  |  |  | 
CCNC(=O)Nc1ccc(-c2nc3c(c(N4CCOCC4)n2)CCNC3)cc1 [Example 82, 1-ethyl-3-(4-(4-morpholino-5,6,7,8-tetrahydropyrido[3,4-d]pyrimidin-2-yl)phenyl)urea] |  | > 10 | 991 |  | > 10 | > 10 |  | > 10 | D (D >10 μM) |  |  |  |  |  |  | 
CCNC(=O)Nc1ccc(-c2nc3c(c(N4CCOC[C@@H]4C)n2)CN(C(=O)OC(C)(C)C)CC3)cc1 [Example 2, (S)-tert-butyl 2-(4-(3-ethylureido)phenyl)-4-(3-methylmorpholino)-7,8-dihydropyrido[4,3-d]pyrimidine-6(5H)-carboxylate] | > 10 | > 10 | 122 | > 10 | > 10 |  |  |  |  |  |  |  |  |  |  | 
CCNC(=O)Nc1cc(F)c(-c2nc3c(c(N4CCOC[C@@H]4C)n2)CN(C(=O)OCC)C3)c(F)c1 [Example 142, (S)-ethyl 2-(4-(3-ethylureido)-2,6-difluorophenyl)-4-(3-methylmorpholino)-5H-pyrrolo[3,4-d]pyrimidine-6(7H)-carboxylate] |  |  |  |  |  |  |  |  |  | > 10 | > 10 | D (D >10 μM) | > 10000 | > 10 | > 10 | 
CC(=O)NCCCC(=O)N1Cc2nc(-c3ccc(NC(=O)NC4CC4)cc3)nc(N3CCOC[C@@H]3C)c2C1 [Example 133, (S)—N-(4-(2-(4-(3-cyclopropylureido)phenyl)-4-(3-methylmorpholino)-5H-pyrrolo[3,4-d]pyrimidin-6(7H)-yl)-4-oxobutyl)acetamide] |  | > 10 |  |  | 1 to 10 | > 10 | 1 to 10 | 1 to 10 |  |  |  |  |  |  |  | < 100
CCNC(=O)Nc1ccc(-c2nc3c(c(N4CCOCC4)n2)CCN(C(=O)OC)C3)cc1 [Example 95, methyl 2-(4-(3-ethylureido)phenyl)-4-morpholino-5,6-dihydropyrido[3,4-d]pyrimidine-7(8H)-carboxylate] |  | > 10 | 218 |  | > 10 | > 10 |  | > 10 | D (D >10 μM) |  |  |  |  |  |  | 
Cl.O=C(Nc1ccc(-c2nc3c(c(N4CCOCC4)n2)CNC3)c(F)c1)NC1CC1 [Example 148, 1-(Cyclopropyl)-3-(3-fluoro-4-(4-morpholino-6,7-dihydro-5H-pyrrolo[3,4-d]pyrimidin-2-yl)phenyl)urea hydrochloride] |  |  |  |  |  |  |  |  |  | > 10 | > 10 | D (D >10 μM) | < 100 | > 10 | > 10 | 

From patent US8785457B2 (Cellzome Limited, priority 2009, dated 2014)
